Measured values: US20230332103A1, “Methods and Compositions for Generating Human Forebrain Neural Progenitor Cells and for Maturation Thereof to Parvalbumin+ Interneurons” (Trailhead Biosystems Inc., priority 2021, published 2023)

Experiments:
[1] = tested on: stage 4 neural stem cells; assay: HD-DoE 8-factor experiment for stage 5 recipe (Forskolin, Arachidonic acid, VPA, BDNF, BT13, O-LPA, GW7646, Sodium pyruvate), optimized for PVALB; assay type: cell-based, human; conditions: for impact on expression of PVALB: dynamic profile analysis, FIG. 26
Procedure: To further guide the differentiation of forebrain-committed neural stem cells to PVALB interneuron cells, an additional HD-DoE experiment was performed for 3 days on cells that were treated with stage 1 to stage 4 media for total of 12 days prior to start of the experiment. This experiment included 8 effectors, Forskolin, Arachidonic acid, VPA, BDNF, BT13, O-LPA, GW7646, and Sodium pyruvate. In this model, we focused on maximum expression of PVALB gene expressed in PVALB (+) interneurons (Nahar et al. (2021) Front. Psych. 12:679960). When the model was optimized for maximum expression of PVALB, Forskolin, GW7646, Sodium Pyruvate had the highest factor contributions, 3.14, 27.2, and 17.1 respectively (FIG. 25).
So, it was excluded in the recipe.

[2] = tested on: stage 4 neural stem cells; assay: factor criticality analysis of stage 5 recipe; assay type: cell-based, human; conditions: FIG. 28-30
Procedure: To assess the impact of elimination of each validated factor, we again used dynamic profile analysis and compared the expression level of genes of interest in the absence of each finalized factor while others are present.
In the stage 5 recipe, each of seven finalized factors were removed while other factors were kept present and expression levels of PVALB and SST were assessed compared to the presence of all seven factors. […] 2-phospho-L-ascorbic acid, BDNF, IGF-1 were included in the stage 5 recipe (FIG. 28). […] Others were also found to increase the expression of somatostatin that was SST interneuron marker. So, they are excluded from the recipe and N2 was included in the stage 5 recipe (FIG. 29). […] Sodium pyruvate was included in the stage 5 recipe (FIG. 30).

`CC(=O)C(=O)[O-].[Na+]` [Sodium pyruvate] was tested, and the “impact on expression of PVALB” value [1] was “significant effect”, the “impact on expression of PVALB” value ([1]; listed as sodium pyruvate) was “positive impact” and the “factor contribution on expression of PVALB” value ([1]; positive, model optimized for maximum expression of PVALB, FIG. 25) was 17.1. For the same compound, the “contribution to expression of PVALB (Parvalbumin)” value [2] was “contribute to PVALB expression”.
